Results from patent publication US10993947B2, “Treatment of skin lesions” (PIQUR THERAPEUTICS AG, priority 2016, dated 2021).
Marks after values point to notes of the source that are not given here.

Legend:
[1] = molecular target: T1, N-terminally GST-tagged mTOR (Homo sapiens, UniProt P42345); test: In vitro mTOR binding assay (LanthaScreen TR-FRET); details: LanthaScreen kinase binding, Tracer 314; read-out: mTOR IC50 (binding)
T1 construct: truncated version: amino acids 1360-2549; purchased Life Technologies PR8683B
T1 sequence (P42345 1360-2549): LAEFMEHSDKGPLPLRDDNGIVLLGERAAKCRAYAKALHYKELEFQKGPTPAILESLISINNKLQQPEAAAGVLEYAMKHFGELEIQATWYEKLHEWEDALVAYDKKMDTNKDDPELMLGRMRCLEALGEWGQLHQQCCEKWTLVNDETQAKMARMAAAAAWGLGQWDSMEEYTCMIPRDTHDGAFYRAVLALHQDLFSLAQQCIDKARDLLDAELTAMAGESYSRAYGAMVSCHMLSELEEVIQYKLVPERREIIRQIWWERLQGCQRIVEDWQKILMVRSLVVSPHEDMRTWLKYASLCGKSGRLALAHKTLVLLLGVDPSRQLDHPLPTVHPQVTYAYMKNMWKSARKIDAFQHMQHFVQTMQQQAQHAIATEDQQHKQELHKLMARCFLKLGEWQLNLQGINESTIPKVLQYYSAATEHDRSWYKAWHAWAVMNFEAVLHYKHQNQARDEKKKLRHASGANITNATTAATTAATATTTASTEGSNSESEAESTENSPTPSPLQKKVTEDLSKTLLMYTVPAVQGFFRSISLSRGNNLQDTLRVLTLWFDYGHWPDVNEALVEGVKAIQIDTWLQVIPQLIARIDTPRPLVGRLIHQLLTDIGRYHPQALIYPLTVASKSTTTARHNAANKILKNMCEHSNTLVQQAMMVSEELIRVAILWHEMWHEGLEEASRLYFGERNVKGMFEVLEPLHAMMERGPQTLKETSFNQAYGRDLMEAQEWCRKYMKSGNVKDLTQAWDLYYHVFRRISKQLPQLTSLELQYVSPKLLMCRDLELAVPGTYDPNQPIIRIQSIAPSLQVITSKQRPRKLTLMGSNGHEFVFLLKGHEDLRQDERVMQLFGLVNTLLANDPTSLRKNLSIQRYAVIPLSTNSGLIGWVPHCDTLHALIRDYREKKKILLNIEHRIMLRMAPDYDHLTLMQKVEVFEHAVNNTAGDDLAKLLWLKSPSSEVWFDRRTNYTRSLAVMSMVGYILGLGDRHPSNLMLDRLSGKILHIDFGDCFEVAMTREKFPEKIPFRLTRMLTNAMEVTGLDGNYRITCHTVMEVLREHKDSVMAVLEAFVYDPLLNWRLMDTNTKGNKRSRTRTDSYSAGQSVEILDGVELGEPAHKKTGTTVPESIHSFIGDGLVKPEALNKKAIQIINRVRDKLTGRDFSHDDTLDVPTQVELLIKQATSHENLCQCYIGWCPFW

pPKB S473 in A2058 cells = test: In-cell Western blot, pPKB S473; type: cell-based; details: Homo sapiens, 1 hour treatment
[2] = tested on: pS6 S235/S236 in A2058 cells; test: In-cell Western blot, pS6 S235/S236; type: cell-based; details: Homo sapiens, 1 hour treatment
[3] = tested on: pig skin (lower epidermis and dermis); test: Ex vivo pig skin penetration, first study (80% SBECD formulations); type: in vitro ADME
From the text: FIG. 3: PK profiles of nine formulations comprising the inventive compounds and control have been assessed. The control formulation Aldara (5% imiquimod) was applied to detect variations in skin permeability (local variability in the same animal and inter-subject variability). The stratum corneum was removed by tape stripping to avoid contamination during the biopsy extraction. […] One biopsy was taken from each control site. Additionally, 5 blank samples were taken.
Ex vivo and in vivo models to assess the penetration of various drug substances including the inventive compounds in the skin of pigs have been established. This model allows to assess the PK profile of several drug candidates including the inventive compounds in one subject, thereby enhancing comparability and avoiding inter-subject variability.
In the first study (FIG. 3, Table 15) the PK profiles of nine test formulations have been assessed using 80% SBECD either at pH3 or pH 7.

excised pig skin = details: 1 %

Row | Structure (SMILES) | IC50 [1] [nM] | IC50 (pPKB S473 in A2058 cells; A2058, 1 h) [nM] | IC50 ([2]; A2058, 1 h) [nM] | penetration into pig skin ([3]; 1% experimental formulations, 80% SBECD, ex vivo) | intrinsic penetration properties compared with imiquimod (Aldara 5% cream) ([3]; ex vivo pig skin, estimated) | skin concentration / skin PK profile (excised pig skin) | IC50 (pPKB S473 in A2058 cells) [nM] | IC50 [2] [nM]
1 | Nc1cc(C(F)F)c(-c2nc(N3C4CCC3COC4)nc(N3C4CCC3COC4)n2)cn1 [Compound 3, 5-(4-(3-oxa-8-azabicyclo[3.2.1]octan-8-yl)-6-(3-oxa-8-azabicyclo[3.2.1]octan-8-yl)-1,3,5-triazin-2-yl)-4-(difluoromethyl)pyridin-2-amine] | 8 | 231 | 105 | penetrated into pig skin (lower epidermis and dermis) to a significant extent | slightly lower | comparable to Cpd1* |  | 
2 | C[C@@H]1COCCN1c1nc(-c2cnc(N)cc2C(F)F)nc(N2[C@H](C)COC[C@H]2C)n1 [Compound 78, 4-(difluoromethyl)-5-[4-[(3R,5R)-3,5-dimethylmorpholin-4-yl]-6-[(3R)-3-methylmorpholin-4-yl]-1,3,5-triazirin-2-yl]pyridin-2-amine] | 38 | 506 | 392 |  |  |  |  | 
3 | Nc1cc(C(F)F)c(-c2nc(N3C4CCCC3COC4)nc(N3C4COCC3COC4)n2)cn1 [Compound 82, 4-(difluoromethyl)-5-[4-(3,7-dioxa-9-azabicyclo[3.3.1]nonan-9-yl)-6-(3-oxa-9-azabicyclo[3.3.1]nonan-9-yl)-1,3,5-triazin-2-yl]pyridin-2-amine] | 40 | 329 | 169 |  |  |  |  | 
4 | C[C@H]1COC[C@H](C)N1c1nc(-c2cnc(N)cc2C(F)F)nc(N2[C@@H](C)COC[C@@H]2C)n1 [Compound 83, 5-[4,6-bis[(3S,5S)-3,5-dimethylmorpholin-4-yl]-1,3,5-triazin-2-yl]-4-(difluoromethyl)pyridin-2-amine] | 32 |  |  |  |  |  | 379 | 294
5 | Nc1ncc(-c2cc(N3CCOCC3)nc(N3CCOCC3)n2)c(C(F)(F)F)n1 [reference compound] | 644 | 194 | 384 |  |  |  |  | 
6 | Nc1cc(C(F)(F)F)c(-c2nc(N3CCOCC3)cc(N3CCOCC3)n2)cn1 [reference compound] | 366 |  |  |  |  |  | 555 | 665
7 | Nc1cc(C(F)(F)F)c(-c2cc(N3CCOCC3)nc(N3C4CCC3COC4)n2)cn1 [reference compound] | 88 | 564 | 562 |  |  |  |  | 
8 | Nc1ncc(-c2cc(N3CCOCC3)nc(N3C4CCC3COC4)n2)c(C(F)(F)F)n1 [reference compound] | 121 | 340 | 740 |  |  |  |  | 
9 | C[C@H]1COCCN1c1nc(-c2cnc(N)nc2C(F)(F)F)cc(N2CCOCC2)n1 [reference compound] | 186 | 191 | 535 |  |  |  |  | 

Further lines, with some results ahead:

Row | IC50 [1] [nM] | IC50 (pPKB S473 in A2058 cells; A2058, 1 h) [nM] | IC50 ([2]; A2058, 1 h) [nM] | Structure (SMILES) | penetration into pig skin ([3]; 1% experimental formulations, 80% SBECD, ex vivo) | intrinsic penetration properties compared with imiquimod (Aldara 5% cream) ([3]; ex vivo pig skin, estimated) | skin concentration / skin PK profile (excised pig skin) | IC50 (pPKB S473 in A2058 cells) [nM] | IC50 [2] [nM]
10 | 10 | 200 | 136 | C[C@@H]1COCCN1c1nc(-c2cnc(N)cc2C(F)F)nc(N2[C@@H](C)COC[C@@H]2C)n1 [Compound 79, 4-(difluoromethyl)-5-[4-[(3S,5S)-3,5-dimethylmorpholin-4-yl]-6-[(3R)-3-methylmorpholin-4-yl]-1,3,5-triazin-2-yl]pyridin-2-amine] |  |  |  |  | 
11 | 18 | 271 | 192 | C[C@@H]1COCCN1c1nc(-c2cnc(N)cc2C(F)F)nc(N2CCOCC23CCC3)n1 [Compound 88, 4-(difluoromethyl)-5-[4-[(3R)-3-methylmorpholin-4-yl]-6-(8-oxa-5-azaspiro[3.5]nonan-5-yl)-1,3,5-triazin-2-yl]pyridin-2-amine] |  |  |  |  | 
12 | 1920 | 175 | 370 | Nc1ncc(-c2nc(N3CCOCC3)cc(N3CCOCC3)n2)c(C(F)(F)F)n1 [reference compound] |  |  |  |  | 
13 | 152 | 452 | 553 | C[C@H]1COCCN1c1cc(-c2cnc(N)cc2C(F)(F)F)nc(N2CCOC[C@@H]2C)n1 [reference compound] |  |  |  |  | 
14 | 287 | 193 | 617 | C[C@H]1COCCN1c1cc(-c2cnc(N)nc2C(F)(F)F)nc(N2CCOC[C@@H]2C)n1 [reference compound] |  |  |  |  | 
15 | 376 | 883 | 1100 | C[C@H]1COCCN1c1cc(-c2cnc(N)cc2C(F)(F)F)nc(N2CCOCC2)n1 [reference compound] |  |  |  |  | 
16 | 1250 | 290 | 1030 | C[C@H]1COCCN1c1cc(-c2cnc(N)nc2C(F)(F)F)nc(N2CCOCC2)n1 [reference compound] |  |  |  |  | 
17 | 28 | 248 | 228 | C[C@H]1COCCN1c1nc(-c2cnc(N)cc2C(F)(F)F)cc(N2CCOCC2)n1 [reference compound] |  |  |  |  | 
